Assay results taken from ChEMBL document CHEMBL1287799, “Design, synthesis, and structure-activity relationship study of bicyclic piperazine analogs of indole-3-carboxamides as novel cannabinoid CB1 receptor agonists” (Bioorg Med Chem Lett, 2010).
Calls of active or inactive are those of the source. No cut-off for these calls is given here.

How the values were obtained:
[1] = Half life in human liver microsomes; type: ADME, Microsome
[2] = Half life in mouse liver microsomes; type: ADME, Microsome
Cannabinoid receptor 1 [3] = molecular target: T1, Cannabinoid receptor 1 (Homo sapiens, UniProt P21554)
T1 sequence (P21554 whole entry): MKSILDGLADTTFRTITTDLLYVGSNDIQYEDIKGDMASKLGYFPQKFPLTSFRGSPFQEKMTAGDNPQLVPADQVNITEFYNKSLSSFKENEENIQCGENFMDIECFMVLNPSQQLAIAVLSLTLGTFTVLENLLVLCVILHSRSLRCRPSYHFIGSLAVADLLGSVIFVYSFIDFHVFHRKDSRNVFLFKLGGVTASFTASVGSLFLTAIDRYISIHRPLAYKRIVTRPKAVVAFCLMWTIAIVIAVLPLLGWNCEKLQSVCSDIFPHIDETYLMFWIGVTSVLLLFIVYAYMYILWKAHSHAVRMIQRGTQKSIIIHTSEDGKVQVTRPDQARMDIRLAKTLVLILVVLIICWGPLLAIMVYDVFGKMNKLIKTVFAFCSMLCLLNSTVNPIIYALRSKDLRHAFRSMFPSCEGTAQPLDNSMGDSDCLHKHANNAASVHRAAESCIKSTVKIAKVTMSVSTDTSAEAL
Description: Agonist activity at human CB1 receptor transfected in CHO cells after 5 hrs by luciferase reporter gene assay

Cannabinoid receptor 2 = Cannabinoid receptor 2 (Homo sapiens, UniProt P34972); assay: Displacement of [3H]-CP55940 from human CB2 expressed in insect Sf9 membranes; type: cell membranes
Chain of Cannabinoid receptor 2 (P34972 whole entry): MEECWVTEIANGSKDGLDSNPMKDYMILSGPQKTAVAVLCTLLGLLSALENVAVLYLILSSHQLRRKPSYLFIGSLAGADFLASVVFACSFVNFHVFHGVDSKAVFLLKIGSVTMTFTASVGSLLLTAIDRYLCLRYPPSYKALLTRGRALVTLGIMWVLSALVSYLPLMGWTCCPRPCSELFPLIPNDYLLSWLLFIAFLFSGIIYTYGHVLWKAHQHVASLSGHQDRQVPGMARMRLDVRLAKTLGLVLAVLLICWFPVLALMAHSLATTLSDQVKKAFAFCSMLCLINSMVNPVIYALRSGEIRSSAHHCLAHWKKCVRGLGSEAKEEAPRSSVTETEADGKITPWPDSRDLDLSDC

Mus musculus [4] = assay: Antinociceptive effect in iv dosed mouse assessed as increase in tail-flick latency period by tail flick test; type: functional
Cannabinoid receptor 1 [5] = molecular target: T1, Cannabinoid receptor 1; assay: biochemical
Mus musculus [6] = assay: Antinociceptive activity against formalin-induced inflammatory pain in iv dosed mouse assessed inhibition of paw licking behavior in both phases of formalin response; type: functional, organism-based
Mus musculus [7] = assay: Antinociceptive activity against formalin-induced inflammatory pain in iv dosed mouse assessed inhibition of paw flinching behavior in both phases of formalin response; type: functional, organism-based
Mus musculus [8] = assay: Antinociceptive activity against formalin-induced inflammatory pain in iv dosed mouse assessed inhibition of paw lifting behavior in both phases of formalin response; type: functional, organism-based
Mus musculus [9] = assay: Antinociceptive activity against formalin-induced inflammatory pain in iv dosed mouse assessed inhibition of paw biting behavior in both phases of formalin response; type: functional, organism-based
Mus musculus [10] = assay: Antinociceptive activity against formalin-induced inflammatory pain in mouse assessed inhibition of paw licking behavior in both phases of formalin response at => 0.3 umol/kg, iv; type: functional, organism-based
Mus musculus [11] = assay: Antinociceptive activity against formalin-induced inflammatory pain in mouse assessed inhibition of paw flinching behavior in both phases of formalin response at => 0.3 umol/kg, iv; type: functional, organism-based
Mus musculus [12] = assay: Antinociceptive activity against formalin-induced inflammatory pain in mouse assessed inhibition of paw lifting behavior in both phases of formalin response at => 0.3 umol/kg, iv; type: functional, organism-based
Mus musculus [13] = assay: Antinociceptive activity against formalin-induced inflammatory pain in mouse assessed inhibition of paw biting behavior in both phases of formalin response => 0.3 umol/kg, iv; type: functional, organism-based
Mus musculus [14] = assay: Antinociceptive activity against formalin-induced inflammatory pain in iv dosed mouse assessed inhibition of paw flinching behavior in both phases of formalin response in presence of CB1 antagonist SR-141716A pretreated before compound challenge; type: functional, organism-based
Mus musculus [15] = assay: Antinociceptive activity against formalin-induced inflammatory pain in iv dosed mouse assessed inhibition of paw licking behavior in both phases of formalin response in presence of CB1 antagonist SR-141716A pretreated before compound challenge; type: functional, organism-based
Mus musculus [16] = assay: Antinociceptive activity against formalin-induced inflammatory pain in iv dosed mouse assessed inhibition of paw lifting behavior in both phases of formalin response in presence of CB1 antagonist SR-141716A pretreated before compound challenge; type: functional, organism-based
Mus musculus [17] = assay: Antinociceptive activity against formalin-induced inflammatory pain in iv dosed mouse assessed inhibition of paw biting behavior in both phases of formalin response in presence of CB1 antagonist SR-141716A pretreated before compound challenge; type: functional, organism-based
Cytochrome P450 3A4 = Cytochrome P450 3A4 (Homo sapiens, UniProt P08684); assay: Inhibition of human CYP3A4; type: ADME
Chain of Cytochrome P450 3A4 (P08684 whole entry): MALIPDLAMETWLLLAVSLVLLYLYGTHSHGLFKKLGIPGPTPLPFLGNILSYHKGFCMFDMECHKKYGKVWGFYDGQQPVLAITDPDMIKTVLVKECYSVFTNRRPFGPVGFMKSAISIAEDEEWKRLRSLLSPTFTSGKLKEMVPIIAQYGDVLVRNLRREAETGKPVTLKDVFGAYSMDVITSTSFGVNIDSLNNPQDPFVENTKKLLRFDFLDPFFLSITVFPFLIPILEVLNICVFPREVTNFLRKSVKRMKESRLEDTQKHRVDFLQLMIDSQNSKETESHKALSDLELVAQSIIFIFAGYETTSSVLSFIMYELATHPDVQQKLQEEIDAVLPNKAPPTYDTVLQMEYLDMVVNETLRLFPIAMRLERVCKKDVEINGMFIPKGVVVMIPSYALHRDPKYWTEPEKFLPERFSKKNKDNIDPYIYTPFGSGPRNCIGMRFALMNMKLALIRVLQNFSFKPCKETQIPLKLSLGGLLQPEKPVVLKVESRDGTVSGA

Cytochrome P450 2C9 = Cytochrome P450 2C9 (Homo sapiens, UniProt P11712); assay: Inhibition of human CYP2C9; type: ADME
Chain of Cytochrome P450 2C9 (P11712 whole entry): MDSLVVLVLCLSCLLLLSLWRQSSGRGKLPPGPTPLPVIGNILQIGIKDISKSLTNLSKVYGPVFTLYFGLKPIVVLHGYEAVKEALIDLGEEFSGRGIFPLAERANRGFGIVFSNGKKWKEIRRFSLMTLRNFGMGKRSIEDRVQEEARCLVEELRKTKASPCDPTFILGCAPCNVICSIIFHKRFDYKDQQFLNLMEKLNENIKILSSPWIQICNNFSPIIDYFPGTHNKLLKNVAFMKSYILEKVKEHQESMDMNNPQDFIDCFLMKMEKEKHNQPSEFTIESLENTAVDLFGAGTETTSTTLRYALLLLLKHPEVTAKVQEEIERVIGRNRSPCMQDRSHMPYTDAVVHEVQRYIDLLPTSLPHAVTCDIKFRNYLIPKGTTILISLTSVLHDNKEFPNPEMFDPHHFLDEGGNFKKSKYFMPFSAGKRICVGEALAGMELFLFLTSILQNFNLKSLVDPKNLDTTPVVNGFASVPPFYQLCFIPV

Cytochrome P450 2D6 = Cytochrome P450 2D6 (Homo sapiens, UniProt P10635); assay: Inhibition of human CYP2D6; type: ADME
Chain of Cytochrome P450 2D6 (P10635 whole entry): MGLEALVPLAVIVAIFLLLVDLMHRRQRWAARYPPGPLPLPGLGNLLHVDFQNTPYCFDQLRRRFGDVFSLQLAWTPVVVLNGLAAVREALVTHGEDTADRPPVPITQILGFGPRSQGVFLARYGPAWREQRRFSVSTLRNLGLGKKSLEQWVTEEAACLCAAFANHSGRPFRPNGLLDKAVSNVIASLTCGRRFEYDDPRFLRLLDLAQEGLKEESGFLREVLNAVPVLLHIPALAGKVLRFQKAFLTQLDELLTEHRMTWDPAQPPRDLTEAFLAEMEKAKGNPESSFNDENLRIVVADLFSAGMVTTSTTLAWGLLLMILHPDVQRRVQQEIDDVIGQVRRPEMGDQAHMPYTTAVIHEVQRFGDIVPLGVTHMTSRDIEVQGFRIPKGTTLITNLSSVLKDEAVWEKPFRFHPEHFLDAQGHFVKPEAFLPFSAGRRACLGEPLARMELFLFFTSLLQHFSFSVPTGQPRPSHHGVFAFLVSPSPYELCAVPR

[18] = Genotoxicity in Salmonella Typhimurium up to 100 uM by Ames test; type: toxicity; settings: salmonella enterica subsp. enterica serovar typhimurium

SMILES	half-life [1] [min]	half-life [2] [min]	EC50 (Cannabinoid receptor 1 [3]) [nM]	also measured
COc1cccc2c(C(=O)N3CCN4CCC[C@H]4C3)cn(CC3CCCCC3)c12.Cl	< 5	< 5	20	–
O=C(c1cn2c3c(cccc13)OC[C@H]2C1CCCCC1)N1CCN2CCCC[C@H]2C1	–	–	–	Ki (Cannabinoid receptor 2): 0.398 nM; ED50 (Mus musculus [4]): 0.00042 µmol/kg; Ki (Cannabinoid receptor 1 [5]): 1.58 nM
COc1cccc2c(C(=O)N3CCN4CCCC[C@H]4C3)cn(CC3CCCCC3)c12.Cl	< 5	< 5	–	–
CCCCCCC(C)(C)c1ccc([C@@H]2C[C@H](O)CC[C@H]2CCCO)c(O)c1 [CP-55940]	–	–	–	ED50 (Mus musculus [4]): 0.00011 µmol/kg
COc1cccc2c(C(=O)N3C[C@H]4CCCN4C[C@@H]3C)cn(CC3CCCCC3)c12.Cl	< 5	< 5	501	–
COc1cccc2c(C(=O)N3C[C@H]4CCCN4C[C@H]3CC(C)C)cn(CC3CCCCC3)c12	< 5	< 5	316	–
COc1cccc2c(C(=O)N3C[C@H]4CCCN4C[C@H]3C)cn(CC3CCCCC3)c12.Cl	< 5	< 5	63.1	–
COc1cccc2c(C(=O)N3CCN4CCC[C@@]4(C)C3)cn(CC3CCCCC3)c12.Cl	< 5	< 5	1260	–
COc1cccc2c(C(=O)N3C[C@@H]4CCCN4C[C@@H]3C)cn(CC3CCCCC3)c12	< 5	< 5	100	–
COc1cccc2c(C(=O)N3CCN4CCCC[C@@H]4C3)cn(CC3CCCCC3)c12	< 5	< 5	100	–
COc1cccc2c(C(=O)N3CCN4CCCC[C@H]4C3)cn(CC3CCCCC3)c12 [listing 1 of 2 here]	–	–	–	Activity (Mus musculus [6]): Dose-dependent effect; Activity (Mus musculus [7]): Dose-dependent effect; Activity (Mus musculus [8]): Dose-dependent effect; Activity (Mus musculus [9]): Dose-dependent effect; Activity (Mus musculus [10]): Active; Activity (Mus musculus [11]): Active; Activity (Mus musculus [12]): Active; Activity (Mus musculus [13]): Active; Activity (Mus musculus [14]): inactive; Activity (Mus musculus [15]): inactive; Activity (Mus musculus [16]): inactive; Activity (Mus musculus [17]): inactive
COc1cccc2c(C(=O)N3C[C@H]4CCCN4CC3(C)C)cn(CC3CCCCC3)c12	< 5	< 5	631	–
COc1cccc2c(C(=O)N3CCN4CCC[C@@H]4C3)cn(CC3CCCCC3)c12	< 5	< 5	63.1	–
COc1cccc2c(C(=O)N3C[C@@H]4CCCN4C[C@@H]3CC(C)C)cn(CC3CCCCC3)c12	< 5	< 5	> 10000	–
COc1cccc2c(C(=O)N3C[C@]4(C)CSCN4C[C@@H]3C)cn(CC3CCCCC3)c12.Cl	< 5	< 5	31.6	–
O=C(c1cn2c3c(cccc13)OC[C@@H]2C1CCCCC1)N1CCN2CCCC[C@H]2C1	–	–	2000	–
COc1cccc2c(C(=O)N3C[C@@H]4CCCN4CC3(C)C)cn(CC3CCCCC3)c12	< 5	< 5	100	–
COc1cccc2c(C(=O)N3C[C@@H]4CCCN4C[C@H]3C)cn(CC3CCCCC3)c12.Cl	< 5	< 5	1000	–
Cc1c(C(=O)c2cccc3ccccc23)c2cccc3c2n1[C@H](CN1CCOCC1)CO3 [WIN-552122]	–	–	–	ED50 (Mus musculus [4]): 0.0017 µmol/kg
COc1cccc2c(C(=O)N3CCN4CCCC[C@H]4C3)cn(CC3CCCCC3)c12 [listing 2 of 2 here]	–	–	–	IC50 (Cytochrome P450 3A4): 6000 nM; IC50 (Cytochrome P450 2C9): 12000 nM; IC50 (Cytochrome P450 2D6): 13000 nM; Ki (Cannabinoid receptor 2): 3.98 nM; ED50 (Mus musculus [4]): 0.00058 µmol/kg; Activity [18]: Non-toxic; Ki (Cannabinoid receptor 1 [5]): 2.51 nM
